In the supplement of paper PMC4862054:

The compounds below were run on MFM-223 (assay: drug sensitivity score (DSS), CellTiter-Glo (DSS (AUC-based score)); higher = stronger drug effect (viability inhibition or cytotoxicity); extreme values may be limits of the assay). Details: incubation time: 72 h.
Outline: (§1)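 Using 20 µl of cell suspension per well, breast cancer cell lines were seeded into 384-well plates pre-loaded with compound at 5 concentrations in 10-fold steps across a compound-specific 10,000-fold range. Incubation lasted 72 h, after which CellTox Green fluorescence at 485/520 nm and then CellTiter-Glo luminescence, following 10 min at room temperature, were recorded. Each plate was normalised to 0.1 % DMSO and a positive kill control before the drug sensitivity score was derived from the area under the fitted dose-response curve.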
For `O=c1[nH]c(=O)n([C@H]2C[C@H](O)[C@@H](CO)O2)cc1F` [Floxuridine], the drug sensitivity score was 0.
`CC(C)C[C@H](NC(=O)[C@H](Cc1ccccc1)NC(=O)c1cnccn1)B(O)O` [Bortezomib] gave a drug sensitivity score of 27.1.
Compound `O=C(c1ccc(OCCN2CCCCC2)cc1)c1c(-c2ccc(O)cc2)sc2cc(O)ccc12` [Raloxifene] has a drug sensitivity score of 1.56.
Compound `Cn1cnc2c(F)c(Nc3ccc(Br)cc3F)c(C(=O)NOCCO)cc21` [MEK-162] has a drug sensitivity score of 0.
For `COc1c(C)cnc(Cn2cnc3c(Cl)nc(N)nc32)c1C` [BIIB021], the drug sensitivity score was 13.2.

Each compound was assayed on HDQ-P1 in the same assay as above. Details: incubation time: 72 h.
Outline: as §1
In the case of `O=c1[nH]c(=O)n([C@H]2C[C@H](O)[C@@H](CO)O2)cc1F` [Floxuridine], the drug sensitivity score is reported as 2.32.
With `CC(C)C[C@H](NC(=O)[C@H](Cc1ccccc1)NC(=O)c1cnccn1)B(O)O` [Bortezomib] the drug sensitivity score was 22.6.
Work on `O=C(c1ccc(OCCN2CCCCC2)cc1)c1c(-c2ccc(O)cc2)sc2cc(O)ccc12` [Raloxifene] yielded a drug sensitivity score of 0.
With `Cn1cnc2c(F)c(Nc3ccc(Br)cc3F)c(C(=O)NOCCO)cc21` [MEK-162] the drug sensitivity score was 5.43.
`COc1c(C)cnc(Cn2cnc3c(Cl)nc(N)nc32)c1C` [BIIB021] gave a drug sensitivity score of 15.2.

What follows are compounds tested on Hs578T in the same assay as above. Details: incubation time: 72 h.
Outline: as §1
`O=c1[nH]c(=O)n([C@H]2C[C@H](O)[C@@H](CO)O2)cc1F` [Floxuridine] showed a drug sensitivity score of 24.7.
`CC(C)C[C@H](NC(=O)[C@H](Cc1ccccc1)NC(=O)c1cnccn1)B(O)O` [Bortezomib] showed a drug sensitivity score of 22.8.
`O=C(c1ccc(OCCN2CCCCC2)cc1)c1c(-c2ccc(O)cc2)sc2cc(O)ccc12` [Raloxifene] showed a drug sensitivity score of 0.
`Cn1cnc2c(F)c(Nc3ccc(Br)cc3F)c(C(=O)NOCCO)cc21` [MEK-162] was tested, and the drug sensitivity score was 0.
For `COc1c(C)cnc(Cn2cnc3c(Cl)nc(N)nc32)c1C` [BIIB021], the drug sensitivity score was 8.9.

Each compound was assayed on HCC1937 in the same assay as above. Details: incubation time: 72 h.
Outline: as §1
Compound `O=c1[nH]c(=O)n([C@H]2C[C@H](O)[C@@H](CO)O2)cc1F` [Floxuridine] has a drug sensitivity score of 10.3.
`CC(C)C[C@H](NC(=O)[C@H](Cc1ccccc1)NC(=O)c1cnccn1)B(O)O` [Bortezomib] showed a drug sensitivity score of 12.9.
With `O=C(c1ccc(OCCN2CCCCC2)cc1)c1c(-c2ccc(O)cc2)sc2cc(O)ccc12` [Raloxifene] the drug sensitivity score was 0.
`Cn1cnc2c(F)c(Nc3ccc(Br)cc3F)c(C(=O)NOCCO)cc21` [MEK-162] was tested, and the drug sensitivity score was 0.
`COc1c(C)cnc(Cn2cnc3c(Cl)nc(N)nc32)c1C` [BIIB021] was tested, and the drug sensitivity score was 16.3.

What follows are compounds tested on MDA-MB-436 in the same assay as above. Details: incubation time: 72 h.
Outline: as §1
`O=c1[nH]c(=O)n([C@H]2C[C@H](O)[C@@H](CO)O2)cc1F` [Floxuridine] was tested, and the drug sensitivity score was 9.72.
`CC(C)C[C@H](NC(=O)[C@H](Cc1ccccc1)NC(=O)c1cnccn1)B(O)O` [Bortezomib] was tested, and the drug sensitivity score was 26.
In the case of `O=C(c1ccc(OCCN2CCCCC2)cc1)c1c(-c2ccc(O)cc2)sc2cc(O)ccc12` [Raloxifene], the drug sensitivity score is reported as 0.
For `Cn1cnc2c(F)c(Nc3ccc(Br)cc3F)c(C(=O)NOCCO)cc21` [MEK-162], the drug sensitivity score was 0.
For `COc1c(C)cnc(Cn2cnc3c(Cl)nc(N)nc32)c1C` [BIIB021], the drug sensitivity score was 13.3.

What follows are compounds tested on MDA-MB-231 in the same assay as above. Details: incubation time: 72 h.
Outline: as §1
In the case of `O=c1[nH]c(=O)n([C@H]2C[C@H](O)[C@@H](CO)O2)cc1F` [Floxuridine], the drug sensitivity score is reported as 4.12.
With `CC(C)C[C@H](NC(=O)[C@H](Cc1ccccc1)NC(=O)c1cnccn1)B(O)O` [Bortezomib] the drug sensitivity score was 22.4.
`O=C(c1ccc(OCCN2CCCCC2)cc1)c1c(-c2ccc(O)cc2)sc2cc(O)ccc12` [Raloxifene] showed a drug sensitivity score of 0.
Work on `Cn1cnc2c(F)c(Nc3ccc(Br)cc3F)c(C(=O)NOCCO)cc21` [MEK-162] yielded a drug sensitivity score of 0.
For `COc1c(C)cnc(Cn2cnc3c(Cl)nc(N)nc32)c1C` [BIIB021], the drug sensitivity score was 13.4.

These compounds were tested on MDA-MB-468 in the same assay as above. Details: incubation time: 72 h.
Outline: as §1
Work on `O=c1[nH]c(=O)n([C@H]2C[C@H](O)[C@@H](CO)O2)cc1F` [Floxuridine] yielded a drug sensitivity score of 6.72.
`CC(C)C[C@H](NC(=O)[C@H](Cc1ccccc1)NC(=O)c1cnccn1)B(O)O` [Bortezomib] gave a drug sensitivity score of 30.9.
`O=C(c1ccc(OCCN2CCCCC2)cc1)c1c(-c2ccc(O)cc2)sc2cc(O)ccc12` [Raloxifene] gave a drug sensitivity score of 2.72.
`Cn1cnc2c(F)c(Nc3ccc(Br)cc3F)c(C(=O)NOCCO)cc21` [MEK-162] gave a drug sensitivity score of 0.
`COc1c(C)cnc(Cn2cnc3c(Cl)nc(N)nc32)c1C` [BIIB021] gave a drug sensitivity score of 12.7.

What follows are compounds tested on HCC1599 in the same assay as above. Details: incubation time: 72 h.
Outline: as §1
`O=c1[nH]c(=O)n([C@H]2C[C@H](O)[C@@H](CO)O2)cc1F` [Floxuridine] showed a drug sensitivity score of 9.95.
`CC(C)C[C@H](NC(=O)[C@H](Cc1ccccc1)NC(=O)c1cnccn1)B(O)O` [Bortezomib] was tested, and the drug sensitivity score was 9.67.
`O=C(c1ccc(OCCN2CCCCC2)cc1)c1c(-c2ccc(O)cc2)sc2cc(O)ccc12` [Raloxifene] gave a drug sensitivity score of 1.37.
For `Cn1cnc2c(F)c(Nc3ccc(Br)cc3F)c(C(=O)NOCCO)cc21` [MEK-162], the drug sensitivity score was 0.
`COc1c(C)cnc(Cn2cnc3c(Cl)nc(N)nc32)c1C` [BIIB021] was tested, and the drug sensitivity score was 10.4.

What follows are compounds tested on MFM-223 (assay: normalised viability (% of control), CellTiter-Blue; higher = more viable cells (about 100 = DMSO control)). Details: 1 nM; incubation time: 72 h.
Outline: (§2)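 Normalised viability is given for a single listed concentration of the series. In 384-well plates, breast cancer cell lines were incubated 72 h with compound, then read with CellTiter-Blue (2 h, 37 °C) at 560/590 nm. Per-plate scaling set vehicle to 100 and a positive kill control to 0, with Z'-factor quality control.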
With `CC(C)C[C@H](NC(=O)[C@H](Cc1ccccc1)NC(=O)c1cnccn1)B(O)O` [Bortezomib] the normalised viability was 104%.
Compound `Cn1cnc2c(F)c(Nc3ccc(Br)cc3F)c(C(=O)NOCCO)cc21` [MEK-162] has a normalised viability of 90.8%.

Same assay, conditions: 10 nM; incubation time: 72 h
Compound `O=c1[nH]c(=O)n([C@H]2C[C@H](O)[C@@H](CO)O2)cc1F` [Floxuridine] has a normalised viability of 97.1%.
`O=C(c1ccc(OCCN2CCCCC2)cc1)c1c(-c2ccc(O)cc2)sc2cc(O)ccc12` [Raloxifene] gave a normalised viability of 99.8%.
In the case of `COc1c(C)cnc(Cn2cnc3c(Cl)nc(N)nc32)c1C` [BIIB021], the normalised viability is reported as 81.9%.

Same assay, conditions: 100 nM; incubation time: 72 h
In the case of `CC(C)C[C@H](NC(=O)[C@H](Cc1ccccc1)NC(=O)c1cnccn1)B(O)O` [Bortezomib], the normalised viability is reported as 16.9%.
Work on `Cn1cnc2c(F)c(Nc3ccc(Br)cc3F)c(C(=O)NOCCO)cc21` [MEK-162] yielded a normalised viability of 89.4%.

Same assay, conditions: 1000 nM; incubation time: 72 h
In the case of `O=c1[nH]c(=O)n([C@H]2C[C@H](O)[C@@H](CO)O2)cc1F` [Floxuridine], the normalised viability is reported as 93.4%.
Compound `CC(C)C[C@H](NC(=O)[C@H](Cc1ccccc1)NC(=O)c1cnccn1)B(O)O` [Bortezomib] has a normalised viability of 15.3%.
Work on `O=C(c1ccc(OCCN2CCCCC2)cc1)c1c(-c2ccc(O)cc2)sc2cc(O)ccc12` [Raloxifene] yielded a normalised viability of 86.2%.
`Cn1cnc2c(F)c(Nc3ccc(Br)cc3F)c(C(=O)NOCCO)cc21` [MEK-162] gave a normalised viability of 94.5%.
`COc1c(C)cnc(Cn2cnc3c(Cl)nc(N)nc32)c1C` [BIIB021] was tested, and the normalised viability was 23%.

Same assay, conditions: 10000 nM; incubation time: 72 h
`O=c1[nH]c(=O)n([C@H]2C[C@H](O)[C@@H](CO)O2)cc1F` [Floxuridine] gave a normalised viability of 55.1%.
Compound `O=C(c1ccc(OCCN2CCCCC2)cc1)c1c(-c2ccc(O)cc2)sc2cc(O)ccc12` [Raloxifene] has a normalised viability of 80.6%.
In the case of `COc1c(C)cnc(Cn2cnc3c(Cl)nc(N)nc32)c1C` [BIIB021], the normalised viability is reported as 23.8%.

The compounds below were run on HDQ-P1 in the same assay as above. Details: 0.3 nM; incubation time: 72 h.
Outline: as §2
Work on `CC(C)C[C@H](NC(=O)[C@H](Cc1ccccc1)NC(=O)c1cnccn1)B(O)O` [Bortezomib] yielded a normalised viability of 79.4%.
Compound `Cn1cnc2c(F)c(Nc3ccc(Br)cc3F)c(C(=O)NOCCO)cc21` [MEK-162] has a normalised viability of 110%.

Same assay, conditions: 3 nM; incubation time: 72 h
Work on `O=c1[nH]c(=O)n([C@H]2C[C@H](O)[C@@H](CO)O2)cc1F` [Floxuridine] yielded a normalised viability of 111%.
With `CC(C)C[C@H](NC(=O)[C@H](Cc1ccccc1)NC(=O)c1cnccn1)B(O)O` [Bortezomib] the normalised viability was 87.9%.
`O=C(c1ccc(OCCN2CCCCC2)cc1)c1c(-c2ccc(O)cc2)sc2cc(O)ccc12` [Raloxifene] gave a normalised viability of 90.2%.
`Cn1cnc2c(F)c(Nc3ccc(Br)cc3F)c(C(=O)NOCCO)cc21` [MEK-162] was tested, and the normalised viability was 105%.
`COc1c(C)cnc(Cn2cnc3c(Cl)nc(N)nc32)c1C` [BIIB021] showed a normalised viability of 110%.

Same assay, conditions: 10 nM; incubation time: 72 h
For `CC(C)C[C@H](NC(=O)[C@H](Cc1ccccc1)NC(=O)c1cnccn1)B(O)O` [Bortezomib], the normalised viability was 10.2%.
Compound `Cn1cnc2c(F)c(Nc3ccc(Br)cc3F)c(C(=O)NOCCO)cc21` [MEK-162] has a normalised viability of 113%.

Same assay, conditions: 30 nM; incubation time: 72 h
`O=c1[nH]c(=O)n([C@H]2C[C@H](O)[C@@H](CO)O2)cc1F` [Floxuridine] showed a normalised viability of 94.8%.
For `O=C(c1ccc(OCCN2CCCCC2)cc1)c1c(-c2ccc(O)cc2)sc2cc(O)ccc12` [Raloxifene], the normalised viability was 97.5%.
`COc1c(C)cnc(Cn2cnc3c(Cl)nc(N)nc32)c1C` [BIIB021] gave a normalised viability of 110%.

Same assay, conditions: 100 nM; incubation time: 72 h
`O=c1[nH]c(=O)n([C@H]2C[C@H](O)[C@@H](CO)O2)cc1F` [Floxuridine] gave a normalised viability of 80.8%.
`O=C(c1ccc(OCCN2CCCCC2)cc1)c1c(-c2ccc(O)cc2)sc2cc(O)ccc12` [Raloxifene] was tested, and the normalised viability was 107%.
Compound `COc1c(C)cnc(Cn2cnc3c(Cl)nc(N)nc32)c1C` [BIIB021] has a normalised viability of 77.8%.
